From patent publication US9593305B2, “Differentiation of pluripotent stem cells” (Janssen Biotech, Inc., priority 2008, dated 2017)

Test system: H1 human embryonic stem cells
Assay: Compound 34 with growth factor combinations including GDF-8, no activin A (Example 7, Table 6)
Type: cell-based
Procedure: Clusters of H1 human embryonic stem cells were grown on reduced growth factor […]™ (Invitrogen; Cat #356231)-coated tissue culture plastic. Cells were passaged using collagenase (Invitrogen; Cat #17104-019) treatment and gentle scraping, washed to remove residual enzyme, and plated with even dispersal at a ratio of 1:1 (surface area) on reduced growth factor […]™-coated 96-well black plates (Packard ViewPlates; PerkinElmer; Cat #6005182) using volumes of 100 μl/well. Cells were allowed to attach as clusters and then recover log phase growth over a 1 to 3 day period, feeding daily with MEF conditioned medium supplemented with 8 ng/ml bFGF (R&D Systems; Cat #233-FB). Plates were maintained at 37° C., 5% CO2 in a humidified box throughout the duration of assay.
Stocks of growth factors purchased from R&D Systems were EGF (Cat #236-EG), FGF4 (Cat #235-F4), PDGF-A (Cat #221-AA), PDGF-D (Cat #1159-SB), PDGF-A/B (Cat #222-AB), VEGF (Cat #293-VE), and GDF-8 (Cat #788-G8). Muscimol was purchased from Tocris (Cat #0289). All growth factors were solubilized in PBS with 0.1% BSA (Sigma; Cat #A7888) and stored frozen at −80° C. Muscimol was solubilized in 100% DMSO (Sigma; Cat #D2650) and stored frozen at −80° C. Cyclic aniline-pyridinotriazine compounds were available as 5 mM stocks in 96-well plate format, solubilized in 100% DMSO and stored at −80° C. Compound 34 was further diluted to an intermediate concentration of 0.2 mM in 50 mM HEPES (Invitrogen; Cat #15630-080), 20% DMSO and stored at 4° C. All growth factors and inhibitors were prepared in a deep well, 96-well polypropylene plate, diluted to 5× intermediate stocks in DMEM:F12 base medium at the beginning of assay and stored at 4° C.
A secondary screening assay was conducted, testing in triplicate and feeding on alternate days over the four-day assay timeframe. Assays were initiated by aspirating culture medium from each well followed by three washes in PBS to remove residual growth factors and serum. […] All remaining growth factors were tested at a final assay concentration of 50 ng/ml (EGF, FGF4, PDGF-A, PDGF-A/B, VEGF) with the exception of GDF-8 tested at 25 ng/ml. Final assay concentration of muscimol was 20 μM. […]
On day 3, wells were aspirated and fed with 80 μl DMEM:F12 base medium supplemented with 2.5% FCS (HyClone) and 3.125 μM Compound 34 plus 20 μl 5× stock of growth factors or small molecules per well to yield a final concentration of 2% FCS and 2.5 μM Compound 34 (omitting Wnt3a) and as denoted on day one for all remaining growth factors or small molecules. Positive control wells (100 μl/well) contained the same base medium supplemented with 2% FCS and 100 ng/ml activin A, omitting Wnt3a. Negative control wells (100 μl/well) contained the same base medium with 2% FCS, omitting both activin A and Wnt3a.
At the conclusion of four-days of culture, assay plates were washed twice with PBS, fixed with 4% paraformaldehyde (Alexis Biochemical; Cat ALX-350-011) at room temperature for 20 minutes, then washed three times with PBS and permeabilized with 0.5% Triton X-100 (Sigma; Cat #T8760-2) for 20 minutes at room temperature. Cells were washed again three times with PBS and blocked with 4% chicken serum (Invitrogen; Cat #16110082) in PBS for 30 minutes at room temperature. Primary antibody (goat anti-human SOX17; R&D Systems; cat #AF1924) was diluted 1:100 in 4% chicken serum and added to each well for one hour at room temperature. Alexa Fluor 488 conjugated secondary antibody (chicken anti-goat IgG; Molecular Probes; Cat #AZ1467) was diluted 1:200 in PBS and added to each sample well after washing three times with PBS. To counterstain nuclei, 4 μg/ml Hoechst 33342 (Invitrogen; Cat #H3570) was added for ten minutes at room temperature. Plates were washed once with PBS and left in 100 μl/well PBS for imaging. […]

[1] = no AA (with Wnt3a), EGF + FGF4 + PDGF-A + VEGF + PDGF-D + Muscimol + GDF8
[2] = no AA (with Wnt3a), GDF8 + PDGF-D
[3] = no AA (with Wnt3a), GDF8 + PDGF-D + VEGF
[4] = no AA (with Wnt3a), GDF8 + PDGF-D + VEGF + Muscimol
[5] = no AA (with Wnt3a), GDF8 + VEGF + Muscimol
[6] = no AA (with Wnt3a), PDGF-D + Muscimol
[7] = no AA (with Wnt3a), PDGF-D + Muscimol + VEGF
[8] = no AA (with Wnt3a), PDGF-D + VEGF
[9] = no AA (with Wnt3a), VEGF + Muscimol
[10] = no AA, no Wnt3a, EGF + FGF4 + PDGF-A + VEGF + PDGF-D + Muscimol + GDF8

O=C1CCN2CCN(CC2)Cc2cc(Cl)cc(c2)Nc2ncnc(n2)-c2cncc(c2)CCCN1 [Compound 34, 5-Chloro-1,8,10,12,16,22,26,32-octaazapentacyclo[24.2.2.1˜3.7˜0.1˜9,13˜0.1˜14.18˜]tritriaconta-3(33), 4,6,9(32), 10,12,14(31), 15,17-nonaen-23-one]
SOX17 expression (% of control) (2.5 μM Compound 34 with GDF-8 (25 ng/ml) and Wnt3a, no activin A): 88 % of control | Cell Number, % of positive control (no AA (with Wnt3a), EGF): 85.53% | Cell Number, Average Total Cell Number (no AA (with Wnt3a), EGF): 6145 | Sox17 Expression, % of positive control (no AA (with Wnt3a), EGF): 19.18% | Sox17 Expression, Average Total Intensity (no AA (with Wnt3a), EGF): 1.5E+07 | Cell Number, % of positive control [1]: 83.90% | Cell Number, Average Total Cell Number [1]: 6028 | Sox17 Expression, % of positive control [1]: 87.44% | Sox17 Expression, Average Total Intensity [1]: 7.0E+07 | Cell Number, % of positive control (no AA (with Wnt3a), FGF4): 74.09% | Cell Number, Average Total Cell Number (no AA (with Wnt3a), FGF4): 5323 | Sox17 Expression, % of positive control (no AA (with Wnt3a), FGF4): 33.75% | Sox17 Expression, Average Total Intensity (no AA (with Wnt3a), FGF4): 2.7E+07 | Cell Number, % of positive control (no AA (with Wnt3a), GDF8): 88.44% | Cell Number, Average Total Cell Number (no AA (with Wnt3a), GDF8): 6354 | Sox17 Expression, % of positive control (no AA (with Wnt3a), GDF8): 88.59% | Sox17 Expression, Average Total Intensity (no AA (with Wnt3a), GDF8): 7.1E+07 | Cell Number, % of positive control [2]: 95.88% | Cell Number, Average Total Cell Number [2]: 6889 | Sox17 Expression, % of positive control [2]: 72.59% | Sox17 Expression, Average Total Intensity [2]: 5.8E+07 | Cell Number, % of positive control [3]: 77.74% | Cell Number, Average Total Cell Number [3]: 5585 | Sox17 Expression, % of positive control [3]: 81.75% | Sox17 Expression, Average Total Intensity [3]: 6.6E+07 | Cell Number, % of positive control [4]: 131.60% | Cell Number, Average Total Cell Number [4]: 9455 | Sox17 Expression, % of positive control [4]: 119.24% | Sox17 Expression, Average Total Intensity [4]: 9.6E+07 | Cell Number, % of positive control [5]: 84.67% | Cell Number, Average Total Cell Number [5]: 6083 | Sox17 Expression, % of positive control [5]: 69.62% | Sox17 Expression, Average Total Intensity [5]: 5.6E+07 | Cell Number, % of positive control (no AA (with Wnt3a), Muscimol): 101.41% | Cell Number, Average Total Cell Number (no AA (with Wnt3a), Muscimol): 7286 | Sox17 Expression, % of positive control (no AA (with Wnt3a), Muscimol): 38.38% | Sox17 Expression, Average Total Intensity (no AA (with Wnt3a), Muscimol): 3.1E+07 | Cell Number, % of positive control (no AA (with Wnt3a), PDGF-A): 58.11% | Cell Number, Average Total Cell Number (no AA (with Wnt3a), PDGF-A): 4175 | Sox17 Expression, % of positive control (no AA (with Wnt3a), PDGF-A): 13.43% | Sox17 Expression, Average Total Intensity (no AA (with Wnt3a), PDGF-A): 1.1E+07 | Cell Number, % of positive control (no AA (with Wnt3a), PDGF-D): 69.84% | Cell Number, Average Total Cell Number (no AA (with Wnt3a), PDGF-D): 5017 | Sox17 Expression, % of positive control (no AA (with Wnt3a), PDGF-D): 18.76% | Sox17 Expression, Average Total Intensity (no AA (with Wnt3a), PDGF-D): 1.5E+07 | Cell Number, % of positive control [6]: 48.57% | Cell Number, Average Total Cell Number [6]: 3490 | Sox17 Expression, % of positive control [6]: 8.02% | Sox17 Expression, Average Total Intensity [6]: 6.5E+06 | Cell Number, % of positive control [7]: 29.68% | Cell Number, Average Total Cell Number [7]: 2133 | Sox17 Expression, % of positive control [7]: 3.32% | Sox17 Expression, Average Total Intensity [7]: 2.7E+06 | Cell Number, % of positive control [8]: 70.01% | Cell Number, Average Total Cell Number [8]: 5030 | Sox17 Expression, % of positive control [8]: 14.58% | Sox17 Expression, Average Total Intensity [8]: 1.2E+07 | Cell Number, % of positive control (no AA (with Wnt3a), VEGF): 65.60% | Cell Number, Average Total Cell Number (no AA (with Wnt3a), VEGF): 4713 | Sox17 Expression, % of positive control (no AA (with Wnt3a), VEGF): 12.49% | Sox17 Expression, Average Total Intensity (no AA (with Wnt3a), VEGF): 1.0E+07 | Cell Number, % of positive control [9]: 10.81% | Cell Number, Average Total Cell Number [9]: 776 | Sox17 Expression, % of positive control [9]: 1.56% | Sox17 Expression, Average Total Intensity [9]: 1.3E+06 | Cell Number, % of positive control (no AA (with Wnt3a), none): 64.18% | Cell Number, Average Total Cell Number (no AA (with Wnt3a), none): 4611 | Sox17 Expression, % of positive control (no AA (with Wnt3a), none): 17.21% | Sox17 Expression, Average Total Intensity (no AA (with Wnt3a), none): 1.4E+07 | Cell Number, % of positive control [10]: 66.21% | Cell Number, Average Total Cell Number [10]: 4757 | Sox17 Expression, % of positive control [10]: 48.77% | Sox17 Expression, Average Total Intensity [10]: 3.9E+07

GDF-8: growth factor GDF-8, also known as myostatin, member of the TGF-β family
SOX17 expression (GDF-8 25 ng/ml in any combination with Compound 34): substantial increase in SOX17 expression
